The values that follow come from article PMC4274664, “Arabidopsis cytosolic acyl-CoA-binding proteins ACBP4, ACBP5 and ACBP6 have overlapping but distinct roles in seed development” (Bioscience Reports, 2014).

For one assay, the target named is 10-kDa bovine ACBP. Also on record: method as in PMID 8166635. The following applies: read-out: binding affinity; cited from earlier work.
A further assay has as its target T1, rAtACBP4 (Arabidopsis thaliana, UniProt Q9MA55).
T1 sequence (Q9MA55 1-668): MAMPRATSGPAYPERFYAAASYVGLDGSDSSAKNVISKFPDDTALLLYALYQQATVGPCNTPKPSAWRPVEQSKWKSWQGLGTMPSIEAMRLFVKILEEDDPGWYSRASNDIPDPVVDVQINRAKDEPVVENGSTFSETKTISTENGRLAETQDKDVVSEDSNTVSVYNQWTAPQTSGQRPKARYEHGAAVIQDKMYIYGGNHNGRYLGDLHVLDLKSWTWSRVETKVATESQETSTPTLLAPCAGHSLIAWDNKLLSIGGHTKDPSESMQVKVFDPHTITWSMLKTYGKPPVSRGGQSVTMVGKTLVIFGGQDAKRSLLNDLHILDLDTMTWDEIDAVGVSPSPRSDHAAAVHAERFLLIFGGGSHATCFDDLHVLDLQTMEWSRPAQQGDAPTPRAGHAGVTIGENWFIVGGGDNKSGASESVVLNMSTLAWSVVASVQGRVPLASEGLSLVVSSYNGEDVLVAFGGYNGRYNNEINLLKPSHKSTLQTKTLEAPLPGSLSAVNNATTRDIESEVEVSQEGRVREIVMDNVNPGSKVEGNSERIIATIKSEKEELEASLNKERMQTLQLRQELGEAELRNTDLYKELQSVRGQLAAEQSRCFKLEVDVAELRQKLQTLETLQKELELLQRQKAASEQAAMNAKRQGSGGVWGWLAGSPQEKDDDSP
Nature of the assay: ITC of acyl-CoA esters binding to rAtACBP4. From the text: (§1) The protein expression plasmids containing full-length AtACBP4 and AtACBP5 cDNA were previously constructed in the vector pRSETB (Invitrogen) as pAT184 and pAT185, respectively. Recombinant (His)6-AtACBP4 and (His)6-AtACBP5 proteins (rAtACBP4 and rAtACBP5) were expressed in Escherichia coli, purified and refolded according to Leung et al.. The coding sequence of AtACBP6 was amplified by PCR with primer pairs ACBP-F1 and ACBP-R1 and cloned into expression vector pEXP5-NT/TOPO (Invitrogen) to generate plasmid pEXP-ACBP6. Sequences of primers are listed in Supplementary Table S1. Recombinant (His)6-AtACBP6 (rAtACBP6) was expressed in E. coli and purified following Chye. The three recombinant proteins were dialysed in 10 mM sodium phosphate buffer (pH 7.0). Protein concentrations were determined by the standard Bradford assay (Bio-Rad).
(§2) Calorimetric titration was performed with a MicroCal iTC200 system (GE Healthcare) at 30°C. Long-chain acyl-CoA esters (Avanti Polar Lipids, Inc.) were dissolved in 10 mM sodium phosphate buffer (pH 7.0) to a final concentration of 0.25, 0.5 and 1 mM. The solution was degassed and loaded into a syringe, while 15 μM rAtACBP6, 6 μM rAtACBP4 or 60 μM rAtACBP5, was placed into the sample cell. For all titrations, 1.8 μl ligand was injected into the sample cell at 150 s intervals with a stirring speed of 1000 rpm. The titrations were completed after 20 injections. All data were collected automatically, and non-specific heat effects were estimated and corrected after saturation following the instructions of the manufacturer. Raw data were integrated and analysed using the Origin v.7.0 software accompanying the calorimeter.

A further assay has as its target T2, rAtACBP6 (Arabidopsis thaliana, UniProt P57752).
T2 construct: made in house; host or cells: Escherichia coli
T2 sequence (P57752 1-92): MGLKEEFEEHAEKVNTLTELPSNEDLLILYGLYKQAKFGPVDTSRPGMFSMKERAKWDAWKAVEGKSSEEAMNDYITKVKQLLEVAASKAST
Nature of the assay: ITC of acyl-CoA esters binding to rAtACBP6. Particulars: ITC, 30°C, 10 mM sodium phosphate buffer pH 7.0.
Text: as §1, §2

For the next assay, the target named is yeast ACBP. Also on record: method as in PMID 8093000. The following applies: read-out: binding affinity; cited from earlier work.
Another assay concerns the target T3, rAtACBP5 (Arabidopsis thaliana, UniProt Q8RWD9).
T3 sequence (Q8RWD9 1-648): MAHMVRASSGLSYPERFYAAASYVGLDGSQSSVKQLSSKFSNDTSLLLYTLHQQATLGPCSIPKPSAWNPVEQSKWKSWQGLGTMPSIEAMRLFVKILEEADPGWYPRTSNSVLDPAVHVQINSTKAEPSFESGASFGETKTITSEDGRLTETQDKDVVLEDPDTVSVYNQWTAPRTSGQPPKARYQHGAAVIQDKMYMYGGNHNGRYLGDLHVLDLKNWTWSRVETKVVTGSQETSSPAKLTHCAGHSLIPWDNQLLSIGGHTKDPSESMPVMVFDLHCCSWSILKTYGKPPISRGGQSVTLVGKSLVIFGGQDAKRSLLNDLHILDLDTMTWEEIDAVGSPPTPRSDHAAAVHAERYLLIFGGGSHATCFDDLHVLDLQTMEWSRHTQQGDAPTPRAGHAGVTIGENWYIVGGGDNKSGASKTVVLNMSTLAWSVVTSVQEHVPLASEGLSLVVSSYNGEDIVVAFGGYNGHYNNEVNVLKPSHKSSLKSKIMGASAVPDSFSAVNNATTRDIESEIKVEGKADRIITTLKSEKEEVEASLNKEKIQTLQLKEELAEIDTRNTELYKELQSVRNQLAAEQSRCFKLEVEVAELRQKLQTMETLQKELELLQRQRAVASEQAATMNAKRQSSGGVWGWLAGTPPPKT
Nature of the assay: ITC of acyl-CoA esters binding to rAtACBP5.
Text: as §1, §2

Setting [1] is: ITC, 30°C, 10 mM sodium phosphate buffer pH 7.0.
[2] abbreviates: ITC, 30°C, 10 mM sodium phosphate buffer pH 7.0, mean of three experiments±S.D., stoichiometry of ligand-to-protein binding.
Where [3] appears, read: ITC, 30°C, 10 mM sodium phosphate buffer pH 7.0, mean of three±S.D.
The mark [4] stands for this setting: ITC, 30°C, 10 mM sodium phosphate buffer pH 7.0, mean of three±S.D., in kcal/mol.
Where [5] appears, read: ITC, 30°C, 10 mM sodium phosphate buffer pH 7.0, mean of three±S.D., read-out: Kd.

Consider `CCCCCCCCCCCCCCCC(=O)SCCNC(=O)CCNC(=O)[C@H](O)C(C)(C)COP(=O)(O)OP(=O)(O)OC[C@H]1O[C@@H](n2cnc3c(N)ncnc32)[C@H](O)[C@@H]1OP(=O)(O)O` [16:0, palmitoyl-CoA], for which the Kd at 10-kDa bovine ACBP was 0.0045 nM; on rAtACBP4 (setting [5]), 23500 ± 27100 nM; on rAtACBP6 (mean of three±S.D., read-out: Kd), 35.9 ± 8.4 nM; on yeast ACBP, 5.5 nM; on rAtACBP5 (setting [5]), 35700 ± 1000 nM. The figures for the ΔS at rAtACBP4 (setting [1]), on rAtACBP6 and on rAtACBP5 (setting [1]) were -236 cal/(mol·K), -11.5 cal/(mol·K) and -16.7 cal/(mol·K), respectively. Also, the n on rAtACBP4 (setting [2]) came out at 1; on rAtACBP6 (mean of three experiments±S.D., stoichiometry of ligand-to-protein binding) it was 1 ± 0.1; on rAtACBP5 (setting [2]), 0.9. The results for the ΔH at rAtACBP4 (setting [3]), on rAtACBP6 (mean of three±S.D.) and on rAtACBP5 (setting [3]) were -77.4 ± 2.5 kcal/mol, -13.7 ± 2.4 kcal/mol and -11.2 ± 0.5 kcal/mol, respectively. For the same compound, the ΔG on rAtACBP4 (setting [4]) is reported as −6.1±0.2; at rAtACBP6 (mean of three±S.D., in kcal/mol), −10.2±0.0; at rAtACBP5 (setting [4]), −6.2±0.0. Besides, the “weaker binding than armadillo ACBP” value at rAtACBP4 (rAtACBP4 versus armadillo ACBP) and at rAtACBP5 (rAtACBP5 versus armadillo ACBP) was 1000 fold in each case.
